What all share (assay type): in vitro ADME
For one data set, the system named is rat hepatocytes. Description: Metabolic stability in rat hepatocytes. Here is the method:
To evaluate the metabolic stability of DWP16001 in human, dog, monkey, mouse, and rat hepatocytes, pooled cryopreserved hepatocytes were carefully thawed in recovery medium and resuspended in incubation medium (Krebs–Henseleit buffer for mouse, rat, and human; William’s E media for dog and monkey) to 0.5 × 10^6 cells/mL for mouse, 0.67 × 10^6 cells/mL for rat, and 1.0 × 10^6 cells/mL for dog, monkey, and human in accordance with the manufacturer’s protocols. Then, 60-μL aliquots of these hepatocyte suspensions and an equal volume of 2 μM DWP16001 in incubation medium were mixed in 96-well plates and incubated in triplicate for 0, 30, 60, 90, 120, 180, or 240 min in a CO2 incubator at 37 °C. Reactions were stopped by addition of 120 µL of ice-cold acetonitrile to each well and the cell suspension was sonicated for 5 min at 4 °C, followed by centrifugation at 15,000× g for 10 min at 4 °C after 5 min of sonication. 80-µL aliquots of the supernatants were then vortex-mixed with 20 μL of ice-cold ketoconazole (an internal standard) in acetonitrile and analyzed by LC–tandem mass spectrometry (LC-MS/MS). The peak area ratios of DWP16001 versus internal standard at each sampling point were used for the subsequent calculation. Elimination parameters, including half-life (t1/2), intrinsic clearance (Clint), and hepatic clearance (Clhep) of DWP16001 in mouse, rat, dog, monkey, and human were calculated by the following equations [19]. (1) t1/2min=ln2/−k elimination slope (2) ClintmL/min/kg=ln2/t1/2×mL incubation/hepatocytes 10^6 cells×B×10^6 cells/g liver×A g liver/kg BW (3) ClhepmL/min/kg=Qh×Clint/Qh+Clint (4) Hepatic extraction ratio = Clhep/Qh
Here, A has values of 87.5, 40, 32, 32, and 25.7; B has values of 135, 117, 215, 120, and 139; Qh (representing hepatic blood flow) has values of 90, 55.2, 30.9, 43.4, and 20.7 mL/min/kg, for mouse, rat, dog, monkey, and human, respectively. Hepatic extraction ratio values of ≤ 0.25, 0.25–0.75, and ≥ 0.75 were regarded as low, moderate, and high, respectively.

In another data set the target is T1, UGT1A9 (Homo sapiens, UniProt O60656).
T1 construct: purchased Corning Life Sciences
T1 sequence (O60656 26-530): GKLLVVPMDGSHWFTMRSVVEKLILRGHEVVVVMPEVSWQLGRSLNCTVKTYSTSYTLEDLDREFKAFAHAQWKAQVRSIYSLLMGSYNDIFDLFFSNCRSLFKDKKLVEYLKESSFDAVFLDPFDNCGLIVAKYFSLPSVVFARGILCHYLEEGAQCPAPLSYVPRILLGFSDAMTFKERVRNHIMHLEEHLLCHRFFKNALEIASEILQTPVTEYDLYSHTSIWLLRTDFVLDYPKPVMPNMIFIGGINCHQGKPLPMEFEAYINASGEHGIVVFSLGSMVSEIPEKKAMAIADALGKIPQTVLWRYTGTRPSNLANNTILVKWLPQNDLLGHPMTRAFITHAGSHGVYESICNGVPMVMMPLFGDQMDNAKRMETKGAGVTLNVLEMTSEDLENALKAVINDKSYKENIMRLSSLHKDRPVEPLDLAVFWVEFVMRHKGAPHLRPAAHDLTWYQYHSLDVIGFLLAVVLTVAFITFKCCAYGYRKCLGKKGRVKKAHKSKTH
The data set can be described thus: UGT screening, cDNA-expressed UGT1A9. Here is the method: (§1) To screen for UGT enzymes responsible for glucuronidation of DWP16001, 100 μL of reaction mixtures containing 13 human cDNA-expressed UGT enzymes (1A1, 1A3, 1A4, 1A6, 1A7, 1A8, 1A9, 1A10, 2B4, 2B7, 2B10, 2B15, and 2B17) at 0.1 mg protein/mL, 5 mM UDPGA, 0.025 mg/mL alamethicin, and 25 μM DWP16001 or M1 in 50 mM Tris buffer (pH 7.4) were incubated at 37 °C for 30 min in triplicate. Reactions were stopped by adding 100 μL of ketoconazole (internal standard, 200 ng/mL) in acetonitrile, followed by vortex-mixing and centrifugation (15,000× g, 8 min, 4 °C). The supernatant (75 μL) was diluted with equal volume of 30% acetonitrile and aliquots (5 μL) were injected into an LC-MS/MS system.

Another data set has as its target T2, UGT2B7 (Homo sapiens, UniProt P16662).
T2 construct: purchased Corning Life Sciences
T2 sequence (P16662 24-529): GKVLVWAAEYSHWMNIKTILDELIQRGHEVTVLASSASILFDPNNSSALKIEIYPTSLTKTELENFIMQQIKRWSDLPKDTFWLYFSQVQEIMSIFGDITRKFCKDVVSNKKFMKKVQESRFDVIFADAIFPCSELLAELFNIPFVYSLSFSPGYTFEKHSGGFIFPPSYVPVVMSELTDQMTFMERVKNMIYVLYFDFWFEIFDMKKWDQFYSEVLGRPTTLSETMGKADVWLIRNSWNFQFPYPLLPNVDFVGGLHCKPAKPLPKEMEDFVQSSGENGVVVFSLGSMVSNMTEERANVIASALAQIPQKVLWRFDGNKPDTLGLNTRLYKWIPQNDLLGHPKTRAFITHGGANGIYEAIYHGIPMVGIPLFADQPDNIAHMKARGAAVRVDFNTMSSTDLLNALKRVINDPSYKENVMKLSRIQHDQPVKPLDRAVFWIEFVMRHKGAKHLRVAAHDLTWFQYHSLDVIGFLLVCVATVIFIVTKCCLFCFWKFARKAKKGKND
The data set can be described thus: UGT screening, cDNA-expressed UGT2B7. Here is the method:
as §1

For the molecule `OC[C@H]1O[C@@H](c2cc(Cc3ccc(C4CC4)cc3)c(Cl)c3c2CCO3)[C@H](O)[C@@H](O)[C@@H]1O` [DWP16001, (2S,3R,4R,5S,6R)-2-(7-chloro-6-(4-cyclopropylbenzyl)-2,3-dihydrobenzofuran-4-yl)-6-(hydroxymethyl)tetrahydro-2H-pyran-3,4,5-triol], in the data set with rat hepatocytes, the Hepatic extraction ratio was found to be 0.15 and the “Hepatic extraction ratio class” value is reported as “low (Hepatic extraction ratio values of ≤ 0.25)”. In addition, the Clhep in the data set on rat hepatocytes (well-stirred model) turned out to be 0.498 L/h/kg. Besides, the “Substrate of UGT1A9” value at UGT1A9 is reported as “substrate”. The “Substrate of UGT2B7” value at UGT2B7 is reported as “substrate”.

Values taken from publication PMC7558535, “In Vitro Metabolism of DWP16001, a Novel Sodium-Glucose Cotransporter 2 Inhibitor, in Human and Animal Hepatocytes” (Pharmaceutics, 2020).
